{"source": "ChEMBL document CHEMBL1128818", "about": "“Synthesis and antiplatelet activity of DMP 757 analogs” (Bioorg Med Chem Lett, 1995)", "target": "Integrin alpha-IIb/beta-3 (Homo sapiens, UniProt P05106+P08514)", "sequence (P05106 27-788 limits assumed)": "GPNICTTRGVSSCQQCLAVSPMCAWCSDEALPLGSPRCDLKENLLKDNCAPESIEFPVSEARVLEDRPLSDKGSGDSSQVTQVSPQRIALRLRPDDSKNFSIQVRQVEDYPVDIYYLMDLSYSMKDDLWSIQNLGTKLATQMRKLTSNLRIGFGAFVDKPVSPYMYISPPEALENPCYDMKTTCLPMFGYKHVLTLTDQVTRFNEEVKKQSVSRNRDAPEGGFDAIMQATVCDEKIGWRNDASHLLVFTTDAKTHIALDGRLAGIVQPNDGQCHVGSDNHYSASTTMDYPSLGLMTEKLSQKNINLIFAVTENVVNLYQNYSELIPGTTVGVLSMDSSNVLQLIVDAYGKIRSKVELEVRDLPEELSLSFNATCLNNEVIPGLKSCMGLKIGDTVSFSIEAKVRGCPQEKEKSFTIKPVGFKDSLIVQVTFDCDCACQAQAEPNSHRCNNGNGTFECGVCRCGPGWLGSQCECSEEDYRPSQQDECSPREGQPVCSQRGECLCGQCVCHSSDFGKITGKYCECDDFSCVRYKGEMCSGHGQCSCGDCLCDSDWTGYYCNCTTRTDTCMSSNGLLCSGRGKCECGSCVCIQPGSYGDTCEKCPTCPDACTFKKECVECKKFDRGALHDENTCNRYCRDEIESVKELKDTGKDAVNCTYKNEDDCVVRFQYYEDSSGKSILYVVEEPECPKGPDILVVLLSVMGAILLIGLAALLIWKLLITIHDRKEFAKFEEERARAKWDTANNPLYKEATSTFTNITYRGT", "sequence (P08514 32-887 limits assumed)": "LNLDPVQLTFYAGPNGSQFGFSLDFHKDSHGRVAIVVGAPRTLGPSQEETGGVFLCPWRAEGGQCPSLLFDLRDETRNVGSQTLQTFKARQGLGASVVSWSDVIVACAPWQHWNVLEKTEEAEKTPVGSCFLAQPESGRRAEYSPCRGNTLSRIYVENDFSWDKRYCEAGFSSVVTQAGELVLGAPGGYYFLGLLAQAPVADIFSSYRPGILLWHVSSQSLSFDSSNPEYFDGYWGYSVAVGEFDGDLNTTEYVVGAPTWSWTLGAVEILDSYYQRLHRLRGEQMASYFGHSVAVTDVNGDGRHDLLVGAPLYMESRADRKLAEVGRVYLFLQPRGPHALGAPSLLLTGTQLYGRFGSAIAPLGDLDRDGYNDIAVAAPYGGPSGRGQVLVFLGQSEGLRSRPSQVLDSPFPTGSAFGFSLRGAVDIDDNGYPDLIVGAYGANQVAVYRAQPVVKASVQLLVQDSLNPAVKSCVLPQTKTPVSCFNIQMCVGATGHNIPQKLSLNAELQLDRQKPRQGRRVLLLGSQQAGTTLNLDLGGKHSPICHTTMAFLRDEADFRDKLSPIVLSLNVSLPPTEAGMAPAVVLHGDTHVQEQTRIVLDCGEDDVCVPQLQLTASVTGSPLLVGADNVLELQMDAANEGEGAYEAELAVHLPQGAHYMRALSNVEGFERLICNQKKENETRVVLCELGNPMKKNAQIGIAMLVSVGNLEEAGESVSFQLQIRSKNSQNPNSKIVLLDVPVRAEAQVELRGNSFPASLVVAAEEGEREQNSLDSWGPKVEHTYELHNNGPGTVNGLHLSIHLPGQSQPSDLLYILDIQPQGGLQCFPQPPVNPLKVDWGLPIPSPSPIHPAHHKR", "sequence (P08514 891-1039 limits assumed)": "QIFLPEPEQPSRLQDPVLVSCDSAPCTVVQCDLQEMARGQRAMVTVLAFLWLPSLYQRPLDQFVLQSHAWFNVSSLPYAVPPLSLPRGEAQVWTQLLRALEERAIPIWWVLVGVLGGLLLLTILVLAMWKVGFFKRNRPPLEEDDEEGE", "experiment": "Inhibition of platelet aggregation in vitro using fibrinogen binding assay"}
{"smiles": "CC(C)[C@H]1NC(=O)c2cccc(c2F)CNC(=O)[C@H](CC(=O)O)NC(=O)CNC(=O)[C@H](CCCN=C(N)N)N(C)C1=O", "values": [{"measurement": "IC50", "result": 4, "unit": "nM"}]}
